Earlier results as cited in patent US20060052448A1, “Use of methyl pyruvate or methyl pyruvic acid for the treatment of diseases of the nervous system and for protecting a human central nervous system against neuronal degeneration caused by defective intracellular energy production” (priority 2004, published 2006).
Like-named read-outs stand apart in the source and are kept apart here. Blank lines part the entries; values can stand above or below the molecule they belong to.

How the values were obtained:
[1] = system: porcine carotid artery strips
malate-aspartate shuttle [2] = settings: mGPDH-deficient islets, both shuttles halted
malate-aspartate shuttle [3] = system: malate-aspartate shuttle
[4] = system: porcine carotid artery strips; settings: 10 mM in PSS
pancreatic beta-cells [5] = system: pancreatic beta-cells
pancreatic beta-cells [6] = system: pancreatic beta-cells; remark: listed apart in the source
[7] = system: isolated beta-cell mitochondria; settings: in combination with glutamate
whole islets = settings: 5 mM
K(ATP) channels = target: T1, K(ATP) channels (Homo sapiens, UniProt Q09428+Q14654)
T1 construct: endogenous in cells

[8] = system: Jurkat T-lymphocyte mitochondria
[9] = system: isolated rat pancreatic islets
pancreatic beta-cells [10] = system: pancreatic beta-cells; remark: listed apart in the source
Na(+)-K(+)-ATPase = settings: 10 microM

T1 sequence (Q14654 whole entry): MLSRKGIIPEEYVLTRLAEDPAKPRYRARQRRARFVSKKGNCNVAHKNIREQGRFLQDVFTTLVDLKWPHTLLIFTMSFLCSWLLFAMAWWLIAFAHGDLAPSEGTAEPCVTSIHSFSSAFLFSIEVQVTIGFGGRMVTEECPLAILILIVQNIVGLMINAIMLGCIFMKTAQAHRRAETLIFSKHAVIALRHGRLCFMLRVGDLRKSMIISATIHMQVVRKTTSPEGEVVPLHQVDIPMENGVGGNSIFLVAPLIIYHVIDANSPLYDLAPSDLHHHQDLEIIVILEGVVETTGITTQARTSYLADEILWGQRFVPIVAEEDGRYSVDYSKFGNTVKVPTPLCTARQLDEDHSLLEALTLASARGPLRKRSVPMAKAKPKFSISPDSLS
T1 sequence (Q09428 whole entry): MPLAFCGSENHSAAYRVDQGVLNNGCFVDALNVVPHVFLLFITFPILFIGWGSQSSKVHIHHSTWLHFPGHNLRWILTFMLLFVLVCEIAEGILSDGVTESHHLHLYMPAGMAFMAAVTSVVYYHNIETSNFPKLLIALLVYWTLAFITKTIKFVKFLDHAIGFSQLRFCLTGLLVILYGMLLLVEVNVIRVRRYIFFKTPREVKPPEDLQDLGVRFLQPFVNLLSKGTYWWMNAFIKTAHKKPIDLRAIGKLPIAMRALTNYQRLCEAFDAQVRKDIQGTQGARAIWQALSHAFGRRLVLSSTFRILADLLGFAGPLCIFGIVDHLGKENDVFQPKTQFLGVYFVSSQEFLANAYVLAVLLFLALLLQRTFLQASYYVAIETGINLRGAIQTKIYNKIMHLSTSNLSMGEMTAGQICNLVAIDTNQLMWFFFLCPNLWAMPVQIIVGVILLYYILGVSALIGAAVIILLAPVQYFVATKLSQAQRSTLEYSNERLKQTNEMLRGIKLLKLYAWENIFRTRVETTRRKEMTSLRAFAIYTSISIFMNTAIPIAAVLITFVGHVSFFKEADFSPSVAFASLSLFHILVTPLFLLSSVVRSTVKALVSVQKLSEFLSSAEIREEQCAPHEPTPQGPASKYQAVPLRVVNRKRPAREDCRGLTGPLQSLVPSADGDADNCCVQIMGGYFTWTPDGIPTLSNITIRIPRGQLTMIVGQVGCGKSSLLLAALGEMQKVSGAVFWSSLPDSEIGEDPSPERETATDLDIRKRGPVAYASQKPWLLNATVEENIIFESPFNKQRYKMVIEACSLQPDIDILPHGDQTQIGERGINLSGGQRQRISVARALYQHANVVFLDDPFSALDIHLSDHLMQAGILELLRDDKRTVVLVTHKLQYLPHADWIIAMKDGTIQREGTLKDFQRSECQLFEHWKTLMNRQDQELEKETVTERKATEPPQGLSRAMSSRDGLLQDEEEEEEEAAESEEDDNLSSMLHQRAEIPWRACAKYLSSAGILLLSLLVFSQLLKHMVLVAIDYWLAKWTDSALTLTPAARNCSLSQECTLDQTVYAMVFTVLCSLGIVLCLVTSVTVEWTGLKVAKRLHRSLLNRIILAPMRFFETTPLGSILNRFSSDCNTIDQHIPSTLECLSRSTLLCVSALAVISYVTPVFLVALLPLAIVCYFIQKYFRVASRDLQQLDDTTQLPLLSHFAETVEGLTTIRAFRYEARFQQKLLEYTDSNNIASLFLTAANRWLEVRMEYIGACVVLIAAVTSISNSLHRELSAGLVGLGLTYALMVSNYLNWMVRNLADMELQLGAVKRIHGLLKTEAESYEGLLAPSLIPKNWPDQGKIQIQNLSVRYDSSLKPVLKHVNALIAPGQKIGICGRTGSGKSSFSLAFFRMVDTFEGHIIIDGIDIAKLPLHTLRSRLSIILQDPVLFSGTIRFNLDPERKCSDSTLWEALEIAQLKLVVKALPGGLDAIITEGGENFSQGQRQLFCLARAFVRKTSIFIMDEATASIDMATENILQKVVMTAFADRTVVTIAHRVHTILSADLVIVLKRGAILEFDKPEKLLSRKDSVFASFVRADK

Compound: [Cl-].[K+] [KCl]
change in resting tone ([1]; 10 mM KCl, glucose-PSS): -0.8 ± 0.8 g | change in resting tone (increased contraction) ([1]; 10 mM KCl, lactate-PSS): 1.5 ± 0.7 g | change in resting tone ([1]; 10 mM KCl, pyruvate-PSS): -2.1 ± 0.8 g | EC50 ([1]; in glucose, read-out: EC50 of KCl concentration-response curve): 32.1 ± 0.9 mM

Compound: NOCC(=O)O [amino-oxyacetic acid]
glucose-induced insulin secretion (malate-aspartate shuttle [2]): almost completely abrogated | negative shift in cytosolic NAD+/NADH redox potential (malate-aspartate shuttle [3]): 26 mV

Compound: CC(O)C(=O)O (stereo not drawn) [lactate]
increase in O2 consumption [4]: without effect

K(ATP) current in standard whole-cell configuration (K(ATP) channels): inhibited | block of KATP (K(ATP) channels): produced a block of KATP | single-channel currents in inside-out patches (K(ATP) channels): blocked
Compound: COC(=O)C(C)=O [methyl pyruvate]
increase in insulin secretion relative to that induced by glucose (pancreatic beta-cells [5]): 6 fold | concentration of maximal effect on insulin secretion (pancreatic beta-cells [5]; absence of glucose): 5 mM | depolarization of the beta-cell membrane potential (pancreatic beta-cells [6]; 5-20 mM): depolarized the beta-cell in a concentration-dependent manner | electrical activity (pancreatic beta-cells [6]; in the presence of 0.5 mM glucose): elicited electrical activity | ATP production (accumulation of ATP in the medium) [7]: higher than that induced by pyruvate/glutamate | effect on ATP/ADP ratio in whole islets (whole islets): no effect | cation current across the inner mitochondrial membrane [8]: directly inhibited | high concentration of the methyl ester giving negative insulinotropic action ([9]; and/or high D-glucose (16.7 mM)): 20.0 mM | concentration of the ester at which positive insulinotropic action prevailed ([9]; low D-glucose, 2.8 to 8.3 mM): ≤ 10.0 mM | ATP production or ATP/ADP ratio (pancreatic beta-cells [10]): did not influence | NAD(P)H autofluorescence (pancreatic beta-cells [10]): slightly decreased | NADH and NADPH response (NAD(P)H imaging and LipDH autofluorescence) (pancreatic beta-cells [10]): stimulated a robust NADH and NADPH response | cytosolic free Ca(2+) concentration (pancreatic beta-cells [10]; after an initial decrease): increased

Compound: C[C@@H]1O[C@@H](O[C@H]2C[C@@H](O)[C@]3(CO)[C@H]4[C@H](O)C[C@]5(C)[C@@H](C6=CC(=O)OC6)CC[C@]5(O)[C@@H]4CC[C@]3(O)C2)[C@H](O)[C@H](O)[C@H]1O [ouabain]
glycolysis and lactate production (Na(+)-K(+)-ATPase): decreased glycolysis and lactate production
